Among the data in patent US20260053834A1, “COVALENT MODIFIERS OF AKT1 AND USES THEREOF” (Terremoto Biosciences, Inc., priority 2023, published 2026) are IC50 values, retold here.

The target of one experiment is T1, AKT1 WT (Homo sapiens, UniProt P31749).
T1 construct: expressed in transfected cells; host or cells: HEK293
Briefly: Live cell target engagement by NanoBRET competitive probe displacement, AKT1 WT. Type of experiment: binding. The settings on record: transfected HEK293 cells, 2 h at 37° C., read-out: AKT1 WT IC50: GeoMean IC50. For orientation: BRET reads energy transfer from a luciferase to a nearby fluorophore.

Experiment [1] has as its system LAPC4 prostate cancer cells, which express the AKT1 E17K allele. Briefly: Antiproliferative effects in LAPC4 cells (CellTiter Glo, 72 h). Format: cell-based. To be noted: Homo sapiens, LAPC4, 72 h, read-out: LAPC4 proliferation IC50: GeoMean IC50. In a few lines:
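Cells grown in IMDM with 12% FBS, seeded at 1,000 cells/well and treated with compound dilutions in DMSO for 72 h. Intracellular ATP read by luminescence. IC50 from a log(inhibitor) vs. response Hill fit.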
A general note: ATP-based viability assays read luminescence as a measure of living cells.

Another experiment concerns the target T2, AKT2 (Homo sapiens, UniProt P31751).
T2 construct: expressed in transfected cells; host or cells: HEK293
Briefly: Live cell target engagement by NanoBRET competitive probe displacement, AKT2. The settings on record: transfected HEK293 cells, 2 h at 37° C., read-out: AKT2 IC50: GeoMean IC50. Format: binding.

A further experiment deals with T3, AKT1 E17K (Homo sapiens, UniProt P31749, E17K).
T3 construct: expressed in transfected cells; host or cells: HEK293
Briefly: Live cell target engagement by NanoBRET competitive probe displacement, AKT1 E17K. Format: binding. To be noted: transfected HEK293 cells, 2 h at 37° C., read-out: AKT1 E17K IC50: GeoMean IC50.

Some results are limits rather than exact numbers.

T3 sequence (P31749 whole entry E17K): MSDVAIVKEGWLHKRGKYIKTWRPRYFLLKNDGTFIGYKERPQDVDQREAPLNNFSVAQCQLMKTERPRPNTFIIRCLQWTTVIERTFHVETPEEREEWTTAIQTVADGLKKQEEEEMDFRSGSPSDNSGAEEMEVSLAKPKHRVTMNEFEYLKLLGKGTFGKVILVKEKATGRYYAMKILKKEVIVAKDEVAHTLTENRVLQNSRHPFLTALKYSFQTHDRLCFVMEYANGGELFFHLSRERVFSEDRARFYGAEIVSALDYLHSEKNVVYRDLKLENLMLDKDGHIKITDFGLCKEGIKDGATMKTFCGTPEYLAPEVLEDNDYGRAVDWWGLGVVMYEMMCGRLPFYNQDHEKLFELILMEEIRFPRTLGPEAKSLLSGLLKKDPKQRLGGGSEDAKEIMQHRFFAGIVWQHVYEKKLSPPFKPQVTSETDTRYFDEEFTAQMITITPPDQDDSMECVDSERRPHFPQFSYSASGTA
T2 sequence (P31751 whole entry): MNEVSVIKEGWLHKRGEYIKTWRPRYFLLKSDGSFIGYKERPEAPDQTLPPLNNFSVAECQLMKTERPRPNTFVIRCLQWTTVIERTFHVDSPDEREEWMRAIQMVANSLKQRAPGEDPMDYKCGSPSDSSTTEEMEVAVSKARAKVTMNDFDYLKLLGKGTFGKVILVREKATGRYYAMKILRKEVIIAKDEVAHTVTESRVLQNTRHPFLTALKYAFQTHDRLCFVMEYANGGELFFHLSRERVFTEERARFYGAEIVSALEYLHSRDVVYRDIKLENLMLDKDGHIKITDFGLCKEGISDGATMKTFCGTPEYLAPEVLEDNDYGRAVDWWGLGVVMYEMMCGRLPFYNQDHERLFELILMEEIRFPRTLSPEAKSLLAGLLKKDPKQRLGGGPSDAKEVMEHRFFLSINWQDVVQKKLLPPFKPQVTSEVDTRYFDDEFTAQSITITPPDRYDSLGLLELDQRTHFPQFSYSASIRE
T1 sequence (P31749 whole entry): as the sequence (P31749 whole entry E17K) above, with K17E counted along it

Take `CN(C)C(=O)Nc1ccc(C(=O)N[C@H]2CCc3cc(-n4c(-c5cccnc5N)nc5ccc(-n6ccc(F)n6)nc54)ccc32)cc1C=O` [Example 122, N-[(1S)-5-[2-(2-aminopyridin-3-yl)-5-(3-fluoropyrazol-1-yl)imidazo[4,5-b]pyridin-3-yl]-2,3-dihydro-1H-inden-1-yl]-4-[(dimethylcarbamoyl)amino]-3-formylbenzamide]: the IC50 on AKT1 WT was 10 to 100 nM; in experiment [1], 10 to 100 nM; at AKT2, 100 to 2000 nM; at AKT1 E17K it was less than 10 nM.
For `Nc1ncccc1-c1nc2ccc(-n3cccn3)nc2n1-c1ccc2c(c1)CC[C@@H]2NC(=O)c1cc(C=O)c(O)c(Cl)c1F` [Example 123, (S)—N-(5-(2-(2-aminopyridin-3-yl)-5-(1H-pyrazol-1-yl)-3H-imidazo[4,5-b]pyridin-3-yl)-2,3-dihydro-1H-inden-1-yl)-3-chloro-2-fluoro-5-formyl-4-hydroxybenzamide], the IC50 is 10 to 100 nM on AKT1 WT, 10 to 100 nM in experiment [1], 10 to 100 nM at AKT2 and less than 10 nM on AKT1 E17K.
Take `CSc1ccn(-c2ccc3nc(-c4cccnc4N)n(-c4ccc5c(c4)CC[C@@H]5NC(=O)c4ccc(O)c(C=O)c4)c3n2)n1` [Example 124, N-[(1S)-5-[2-(2-aminopyridin-3-yl)-5-[3-(methylsulfanyl)pyrazol-1-yl]imidazo[4,5-b]pyridin-3-yl]-2,3-dihydro-1H-inden-1-yl]-3-formyl-4-hydroxybenzamide]: the IC50 on AKT1 WT was in the range of 10 to 100 nM; in experiment [1] it was 10 to 100 nM; on AKT2, 100 to 2000 nM; at AKT1 E17K, 10 to 100 nM.
Take `Nc1ncccc1-c1nc2ccc(-n3ccc(F)n3)nc2n1-c1ccc2c(c1)CC[C@@H]2NC(=O)c1cc(C=O)c(O)c(F)c1F` [Example 125, (S)—N-(5-(2-(2-aminopyridin-3-yl)-5-(3-fluoro-1H-pyrazol-1-yl)-3H-imidazo[4,5-b]pyridin-3-yl)-2,3-dihydro-1H-inden-1-yl)-2,3-difluoro-5-formyl-4-hydroxybenzamide]: the IC50 on AKT1 WT was 10 to 100 nM; in experiment [1] it was 10 to 100 nM; on AKT2, 100 to 2000 nM; on AKT1 E17K, less than 10 nM.
Turning to `COCc1ccn(-c2ccc3nc(-c4cccnc4N)n(-c4ccc5c(c4)CC[C@@H]5NC(=O)c4ccc(O)c(C=O)c4)c3n2)n1` [Example 126, N-[(1S)-5-[2-(2-aminopyridin-3-yl)-5-[3-(methoxymethyl)pyrazol-1-yl]imidazo[4,5-b]pyridin-3-yl]-2,3-dihydro-1H-inden-1-yl]-3-formyl-4-hydroxybenzamide], the IC50 was 10 to 100 nM at AKT1 WT, 10 to 100 nM in experiment [1], 100 to 2000 nM at AKT2 and less than 10 nM on AKT1 E17K.
For `Nc1ncccc1-c1nc2ccc(-n3ccc(CO)n3)nc2n1-c1ccc2c(c1)CC[C@@H]2NC(=O)c1ccc(O)c(C=O)c1` [Example 127, (S)—N-(5-(2-(2-aminopyridin-3-yl)-5-(3-(hydroxymethyl)-1H-pyrazol-1-yl)-3H-imidazo[4,5-b]pyridin-3-yl)-2,3-dihydro-1H-inden-1-yl)-3-formyl-4-hydroxybenzamide], the IC50 on AKT1 WT lay within 10 to 100 nM; in experiment [1], 10 to 100 nM; on AKT2, 100 to 2000 nM; on AKT1 E17K, 10 to 100 nM.
Regarding `Cc1cc(C)n(-c2ccc3nc(-c4cccnc4N)n(-c4ccc5c(c4)CC[C@@H]5NC(=O)c4ccc(O)c(C=O)c4)c3n2)n1` [Example 129, N-[(1S)-5-[2-(2-aminopyridin-3-yl)-5-(3,5-dimethylpyrazol-1-yl)imidazo[4,5-b]pyridin-3-yl]-2,3-dihydro-1H-inden-1-yl]-3-formyl-4-hydroxybenzamide], the IC50 on AKT1 WT was 10 to 100 nM; in experiment [1], 100 to 2000 nM; at AKT2 it was 100 to 2000 nM; on AKT1 E17K it was 10 to 100 nM.
As to `Nc1ncccc1-c1nc2ccc(-c3nccs3)nc2n1-c1ccc2c(c1)CC[C@@H]2NC(=O)c1cc(F)c(O)c(C=O)c1` [Example 130, N-[(1S)-5-[2-(2-aminopyridin-3-yl)-5-(1,3-thiazol-2-yl)imidazo[4,5-b]pyridin-3-yl]-2,3-dihydro-1H-inden-1-yl]-3-fluoro-5-formyl-4-hydroxybenzamide], the IC50 at AKT1 WT was in the range of 10 to 100 nM; in experiment [1], 10 to 100 nM; at AKT2, 100 to 2000 nM; on AKT1 E17K, 10 to 100 nM.
Regarding `Cc1cc(-n2cccn2)nc2c1nc(-c1cccnc1N)n2-c1ccc2c(c1)CC[C@@H]2NC(=O)c1ccc(O)c(C=O)c1` [Example 131, (S)—N-(5-(2-(2-aminopyridin-3-yl)-7-methyl-5-(1H-pyrazol-1-yl)-3H-imidazo[4,5-b]pyridin-3-yl)-2,3-dihydro-1H-inden-1-yl)-3-formyl-4-hydroxybenzamide], the IC50 (on AKT1 WT; in experiment [1]; at AKT2; on AKT1 E17K) was 10 to 100 nM throughout.
Consider `Cc1cnc(-c2ccc3nc(-c4cccnc4N)n(-c4ccc5c(c4)CC[C@@H]5NC(=O)c4ccc(O)c(C=O)c4)c3n2)s1` [Example 132, (S)—N-(5-(2-(2-aminopyridin-3-yl)-5-(5-methylthiazol-2-yl)-3H-imidazo[4,5-b]pyridin-3-yl)-2,3-dihydro-1H-inden-1-yl)-3-formyl-4-hydroxybenzamide], for which the IC50 at AKT1 WT is 10 to 100 nM; in experiment [1], 10 to 100 nM; on AKT2, 100 to 2000 nM; on AKT1 E17K, less than 10 nM.
With `Cc1csc(-c2ccc3nc(-c4cccnc4N)n(-c4ccc5c(c4)CC[C@@H]5NC(=O)c4ccc(O)c(C=O)c4)c3n2)n1` [Example 133, (S)—N-(5-(2-(2-aminopyridin-3-yl)-5-(4-methylthiazol-2-yl)-3H-imidazo[4,5-b]pyridin-3-yl)-2,3-dihydro-1H-inden-1-yl)-3-formyl-4-hydroxybenzamide], the IC50 on AKT1 WT was less than 10 nM; in experiment [1] it was 10 to 100 nM; on AKT2 it was 10 to 100 nM; at AKT1 E17K, less than 10 nM.
In the case of `Nc1ccn(-c2ccc3nc(-c4cccnc4N)n(-c4ccc5c(c4)CC[C@@H]5NC(=O)c4ccc(O)c(C=O)c4)c3n2)n1` [Example 134, N-[(1S)-5-[5-(3-aminopyrazol-1-yl)-2-(2-aminopyridin-3-yl)imidazo[4,5-b]pyridin-3-yl]-2,3-dihydro-1H-inden-1-yl]-3-formyl-4-hydroxybenzamide], the IC50 fell in the range of 100 to 2000 nM at AKT1 WT, 100 to 2000 nM in experiment [1], 100 to 2000 nM at AKT2 and 10 to 100 nM on AKT1 E17K.
Regarding `Nc1ncccc1-c1nc2ccc(-n3ccc(F)n3)nc2n1-c1ccc2c(c1)CC[C@@H]2NC(=O)c1cc(C=O)c(O)cc1F` [Example 135, N-[(1S)-5-[2-(2-aminopyridin-3-yl)-5-(3-fluoropyrazol-1-yl)imidazo[4,5-b]pyridin-3-yl]-2,3-dihydro-1H-inden-1-yl]-2-fluoro-5-formyl-4-hydroxybenzamide], the IC50 at AKT1 WT lay within 10 to 100 nM; in experiment [1] it was 10 to 100 nM; at AKT2, 100 to 2000 nM; at AKT1 E17K it was 10 to 100 nM.
In the case of `Nc1ncccc1-c1nc2ccc(Cl)nc2n1-c1ccc2c(c1)CC[C@@H]2NC(=O)c1ccc(O)c(C=O)c1` [Example 136, N-[(1S)-5-[2-(2-aminopyridin-3-yl)-5-chloroimidazo[4,5-b]pyridin-3-yl]-2,3-dihydro-1H-inden-1-yl]-3-formyl-4-hydroxybenzamide], the IC50 on AKT1 WT is 100 to 2000 nM; in experiment [1] it was 100 to 2000 nM; at AKT2 it was no less than 2000 nM; on AKT1 E17K, 10 to 100 nM.
As for `Nc1ncccc1-c1nc2ccc(-c3ccccc3)nc2n1-c1ccc2c(c1)CC[C@@H]2NC(=O)c1cc(C=O)c2[nH]nnc2c1` [Example 137, N-[(1S)-5-[2-(2-aminopyridin-3-yl)-5-phenylimidazo[4,5-b]pyridin-3-yl]-2,3-dihydro-1H-inden-1-yl]-7-formyl-1H-1,2,3-benzotriazole-5-carboxamide], the IC50 on AKT1 WT was less than 10 nM; in experiment [1], 10 to 100 nM; on AKT2, less than 10 nM; on AKT1 E17K it was less than 10 nM.
Take `Nc1ncccc1-c1nc2ccc(-n3cc(CO)cn3)nc2n1-c1ccc2c(c1)CC[C@@H]2NC(=O)c1cc(C=O)c(O)cc1F` [Example 138, (S)—N-(5-(2-(2-aminopyridin-3-yl)-5-(4-(hydroxymethyl)-1H-pyrazol-1-yl)-3H-imidazo[4,5-b]pyridin-3-yl)-2,3-dihydro-1H-inden-1-yl)-2-fluoro-5-formyl-4-hydroxybenzamide]: the IC50 was in the range of 100 to 2000 nM on AKT1 WT, 10 to 100 nM in experiment [1], 100 to 2000 nM at AKT2 and 10 to 100 nM on AKT1 E17K.
As to `Nc1ncccc1-c1nc2ccc(-c3nccs3)nc2n1-c1ccc2c(c1)CC[C@@H]2NC(=O)c1cc(C=O)c(O)c(F)c1F` [Example 140, (S)—N-(5-(2-(2-aminopyridin-3-yl)-5-(thiazol-2-yl)-3H-imidazo[4,5-b]pyridin-3-yl)-2,3-dihydro-1H-inden-1-yl)-2,3-difluoro-5-formyl-4-hydroxybenzamide], the IC50 on AKT1 WT is less than 10 nM; in experiment [1] it was less than 10 nM; at AKT2, 10 to 100 nM; at AKT1 E17K, less than 10 nM.
With `Cn1ccnc1Nc1ccc(C(=O)N[C@H]2CCc3cc(-n4c(-c5cccnc5N)nc5ccc(-n6cccn6)nc54)ccc32)cc1C=O` [Example 141, (S)—N-(5-(2-(2-aminopyridin-3-yl)-5-(1H-pyrazol-1-yl)-3H-imidazo[4,5-b]pyridin-3-yl)-2,3-dihydro-1H-inden-1-yl)-3-formyl-4-((1-methyl-1H-imidazol-2-yl)amino)benzamide], the IC50 on AKT1 WT lay within 10 to 100 nM; in experiment [1], 100 to 2000 nM; at AKT2, 100 to 2000 nM; at AKT1 E17K, 100 to 2000 nM.
